pIC50: −log10 of the molar value.
Legend:
human SGLT2 = molecular target: T1, human SGLT2 (Homo sapiens, UniProt P31639); experiment: Cell-based assay for sodium-dependent glucose transport (14C-AMG uptake), CHOK-SGLT2; settings: CHO-K1 cells stably expressing human SGLT2; for pIC50: Na-dependent 14C-AMG uptake
T1 construct: expressed in transfected cells
T1 sequence (P31639 1-672): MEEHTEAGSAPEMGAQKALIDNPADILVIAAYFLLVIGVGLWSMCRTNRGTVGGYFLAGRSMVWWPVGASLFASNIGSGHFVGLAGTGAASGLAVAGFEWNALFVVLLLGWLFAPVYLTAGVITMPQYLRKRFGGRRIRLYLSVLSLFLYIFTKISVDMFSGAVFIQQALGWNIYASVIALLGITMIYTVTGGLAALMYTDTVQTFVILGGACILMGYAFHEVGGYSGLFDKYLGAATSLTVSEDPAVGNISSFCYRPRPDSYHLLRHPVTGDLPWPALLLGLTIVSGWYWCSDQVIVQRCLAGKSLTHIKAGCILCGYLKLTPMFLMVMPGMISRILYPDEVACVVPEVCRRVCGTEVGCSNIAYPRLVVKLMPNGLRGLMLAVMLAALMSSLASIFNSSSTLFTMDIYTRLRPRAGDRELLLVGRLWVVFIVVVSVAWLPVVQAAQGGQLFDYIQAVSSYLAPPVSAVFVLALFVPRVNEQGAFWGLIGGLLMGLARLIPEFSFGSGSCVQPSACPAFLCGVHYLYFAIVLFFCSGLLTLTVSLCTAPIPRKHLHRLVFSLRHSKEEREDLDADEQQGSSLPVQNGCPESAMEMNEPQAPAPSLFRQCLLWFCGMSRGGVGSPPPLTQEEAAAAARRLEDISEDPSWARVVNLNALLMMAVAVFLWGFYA
Description: (§1) Cloning of the human SGLT1 and human SGLT2 cDNAs and construction of the mammalian expression vector: The human SGLT1 cDNA (Genbank M24847) was cloned from human small intestine. Human SGLT2 cDNA (Genbank M95549) was cloned from human kidney. Both full cDNAs were subcloned into pcDNA and sequenced to verify the integrity of the construct.
(§2) Generation of CHO-K1 cells stably expressing human SGLT1 or human SGLT2: Transfection of CHO-K1 cells was performed using DMRIE-C reagent (Life Technologies, Gaithersburg, Md.). Transfectants were then selected in the presence of the antibiotic G418 (Gibco-BRL, Grand Island, N.Y.) at 400 μg/ml. Individual clones were then characterized using the functional assay described below.
(§3) Cell-based assay for sodium-dependent glucose transport: Cell lines stably expressing human SGLT1 or SGLT2 were then used for functional analysis of Na+-dependent glucose uptake. Briefly, cells were plated at a density of 65,000 cells per well in a 96-well plate and allowed to grow for 48 hours. Cells were subsequently washed one time with Assay Buffer (50 mM HEPES pH […], 5 mM KCl, 1 mM MgCl2, 1 mM CaCl2 and 137 mM NaCl) and treated with compound in the absence or presence of NaCl for 15 minutes. Cells were then labeled with ^14C-α-methylglucopyranoside (AMG, Sigma, St. Louis, Mo.), a non-metabolizable glucose analog specific for sodium-dependent glucose transporters as previously described (Peng, H. and Lever J. E. Post-transcriptional regulation of Na^+/glucose cotransporter (SGLT1) gene expression in LLC-PK1 cells. J Biol Chem 1995; 270:20536-20542.). After 2 hours the labeled cells were washed three times with ice-cold PBS. After aspiration, cells were solubilized using Microscint 20 (Packard, Meriden, Conn.) and Na-dependent ^14C-AMG uptake was quantified by measuring radioactivity. Plates were counted in a TopCount (Packard, Meriden, Conn.). Results are reported as the % inhibition or IC50 value from a representative experiment. Variability for the functional assay was typically within 20%.

human SGLT1 = molecular target: T2, human SGLT1 (Homo sapiens, UniProt P13866); experiment: Cell-based assay for sodium-dependent glucose transport (14C-AMG uptake), CHOK-SGLT1; settings: CHO-K1 cells stably expressing human SGLT1; for inhibition at 10 µM: 10 μM compound, read-out: CHOK-SGLT1 % Inh. @ 10 μM; for pIC50: Na-dependent 14C-AMG uptake
T2 construct: expressed in transfected cells
T2 sequence (P13866 1-664): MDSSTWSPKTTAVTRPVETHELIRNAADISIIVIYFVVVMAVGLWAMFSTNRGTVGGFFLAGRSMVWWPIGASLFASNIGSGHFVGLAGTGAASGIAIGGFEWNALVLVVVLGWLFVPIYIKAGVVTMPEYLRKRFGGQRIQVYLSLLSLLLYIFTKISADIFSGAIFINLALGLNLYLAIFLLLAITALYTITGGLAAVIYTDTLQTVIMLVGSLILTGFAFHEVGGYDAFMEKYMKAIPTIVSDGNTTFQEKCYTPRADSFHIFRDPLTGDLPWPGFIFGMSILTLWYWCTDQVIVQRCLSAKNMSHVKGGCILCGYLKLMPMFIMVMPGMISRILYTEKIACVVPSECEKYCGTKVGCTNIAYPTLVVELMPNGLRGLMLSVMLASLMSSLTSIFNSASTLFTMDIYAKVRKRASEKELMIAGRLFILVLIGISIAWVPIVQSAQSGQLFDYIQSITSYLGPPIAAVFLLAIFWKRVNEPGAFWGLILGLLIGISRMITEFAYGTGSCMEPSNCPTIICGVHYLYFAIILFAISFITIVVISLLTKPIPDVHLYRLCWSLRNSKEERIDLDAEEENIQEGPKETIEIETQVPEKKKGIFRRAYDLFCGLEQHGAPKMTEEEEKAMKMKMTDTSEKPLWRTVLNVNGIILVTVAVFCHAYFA
Description: as §1, §2, §3

Compound | pIC50 (human SGLT2) | inhibition at 10 µM (human SGLT1) [%] | pIC50 (human SGLT1) | other results
CCc1ccc(Cc2c[nH]c3cccc(O[C@@H]4O[C@H](COC(=O)OC)[C@@H](O)[C@H](O)[C@H]4O)c23)cc1 [Example 12, 2-[3-(4-Ethyl-benzyl)-1H-indol-4-yloxy]-6-O-methoxycarbonyl-β-D-glucopyranoside] | 6.18 |  |  | 
COc1ccc(-c2c[nH]c3cccc(O[C@@H]4O[C@H](CO)[C@@H](O)[C@H](O)[C@H]4O)c23)cc1 [Example 33, 2-[3-(4-Methoxy-phenyl)-1H-indol-4-yloxy]-β-D-glucopyranoside] |  |  |  | inhibition at 10 µM (human SGLT2; 10 μM compound, read-out: CHOK-SGLT2 % Inh. @ 10 μM): 37%
OC[C@H]1O[C@@H](Oc2cccc3[nH]cc(Cc4ccc5c(c4)CCO5)c23)[C@H](O)[C@@H](O)[C@@H]1O [Example 30, 2-[3-(2,3-Dihydro-benzofuran-5-ylmethyl)-1H-indol-4-yloxy]-β-D-glucopyranoside] | 5.73 | 30 |  | 
OC[C@H]1O[C@@H](Oc2cccc3[nH]cc(Cc4ccc(Oc5ccccc5)cc4)c23)[C@H](O)[C@@H](O)[C@@H]1O [Example 26, 2-[3-(4-Phenoxy-benzyl)-1H-indol-4-yloxy]-β-D-glucopyranoside] | 6.38 |  |  | 
OC[C@H]1O[C@@H](Oc2cccc3[nH]cc(Cc4ccc(-c5ccccc5)c(F)c4)c23)[C@H](O)[C@@H](O)[C@@H]1O [Example 20, 2-[3-(2-Fluoro-biphenyl-4-ylmethyl)-1H-indol-4-yloxy]-β-D-glucopyranoside] | 6.94 | 35 |  | 
OC[C@H]1O[C@@H](Oc2cccc3[nH]cc(CCc4ccc5c(c4)OCCO5)c23)[C@H](O)[C@@H](O)[C@@H]1O [Example 5, 2-{3-[2-(2,3-Dihydro-benzo[1,4]dioxin-6-yl)-ethyl]-1H-indol-4-yloxy}-β-D-glucopyranoside] | 6.84 |  | 5.47 | 
COc1ccc(CCc2c[nH]c3cc(C)cc(O[C@@H]4O[C@H](CO)[C@@H](O)[C@H](O)[C@H]4O)c23)cc1 [Example 10, 2-{3-[2-(4-Methoxy-phenyl)-ethyl]-6-methyl-1H-indol-4-yloxy}-β-D-glucopyranoside] | 6.42 |  | 5.56 | 
CC(=O)OC[C@H]1O[C@@H](Oc2cccc3[nH]cc(CCc4ccc5c(c4)CCO5)c23)[C@H](O)[C@@H](O)[C@@H]1O [Example 2, 2-{3-[2-(2,3-Dihydro-benzofuran-5-yl)-ethyl]-1H-indol-4-yloxy}-6-O-acetyl β-D-glucopyranoside] | 6.80 |  | 5.87 | 
CCc1ccc(Cc2cn(C(C)C)c3cccc(O[C@@H]4O[C@H](CO)[C@@H](O)[C@H](O)[C@H]4O)c23)cc1 [Example 31, 2-[3-(4-Ethyl-benzyl)-1-isopropyl-1H-indol-4-yloxy]-β-D-glucopyranoside] | 5.29 |  |  | 
OC[C@H]1O[C@@H](Oc2cccc3[nH]cc(CCc4ccc5ccccc5c4)c23)[C@H](O)[C@@H](O)[C@@H]1O [Example 6, 2-[3-(2-Naphthalen-2-yl-ethyl)-1H-indol-4-yloxy]-β-D-glucopyranoside] | 6.83 |  |  | 
CCOC(=O)OC[C@H]1O[C@@H](Oc2cccc3[nH]cc(Cc4ccc(CC)cc4)c23)[C@H](O)[C@@H](O)[C@@H]1O [Example 13, 2-[3-(4-Ethyl-benzyl)-1H-indol-4-yloxy]-6-O-ethoxycarbonyl-β-D-glucopyranoside] | 6.19 |  |  | 

Further lines, with some results ahead:

pIC50 (human SGLT2) | inhibition at 10 µM (human SGLT1) [%] | pIC50 (human SGLT1) | Compound | other results
7.00 | 63 |  | OC[C@H]1O[C@@H](Oc2cccc3[nH]cc(Cc4ccc(-c5ccccc5)cc4)c23)[C@H](O)[C@@H](O)[C@@H]1O [Example 19, 2-(3-Biphenyl-4-ylmethyl-1H-indol-4-yloxy)-β-D-glucopyranoside] | 
6.69 | 79 |  | COc1ccc(Cc2c[nH]c3cccc(O[C@@H]4O[C@H](CO)[C@@H](O)[C@H](O)[C@H]4O)c23)cc1F [Example 24, 2-[3-(3-Fluoro-4-methoxy-benzyl)-1H-indol-4-yloxy]-D-glucopyranoside] | 
7.28 |  | 5.41 | Cc1ccc(Cc2c[nH]c3cccc(O[C@@H]4O[C@H](CO)[C@@H](O)[C@H](O)[C@H]4O)c23)cc1 [Example 15, 2-[3-(4-Methyl-benzyl)-1H-indol-4-yloxy]-β-D-glucopyranoside] | 
6.59 | 68 |  | OC[C@H]1O[C@@H](Oc2cccc3[nH]cc(Cc4ccc5ccccc5c4)c23)[C@H](O)[C@@H](O)[C@@H]1O [Example 29, 2-(3-Naphthalen-2-ylmethyl-1H-indol-4-yloxy)-β-D-glucopyranoside] | 
7.31 |  |  | CCCc1ccc(Cc2c[nH]c3cccc(O[C@@H]4O[C@H](CO)[C@@H](O)[C@H](O)[C@H]4O)c23)cc1 [Example 17, 2-[3-(4-propyl-benzyl)-1H-indol-4-yloxy]-β-D-glucopyranoside] | 
7.06 | 49 |  | CC(C)c1ccc(Cc2c[nH]c3cccc(O[C@@H]4O[C@H](CO)[C@@H](O)[C@H](O)[C@H]4O)c23)cc1 [Example 18, 2-[3-(4-isopropyl-benzyl)-1H-indol-4-yloxy]-β-D-glucopyranoside] | 
6.74 |  | 5.87 | CCOc1ccc(CCc2c[nH]c3cccc(O[C@@H]4O[C@H](CO)[C@@H](O)[C@H](O)[C@H]4O)c23)cc1 [Example 8, 2-{3-[2-(4-Ethoxy-phenyl)-ethyl]-1H-indol-4-yloxy}-β-D-glucopyranoside] | 
6.88 |  | 5.95 | OC[C@H]1O[C@@H](Oc2cccc3[nH]cc(Cc4ccc(-c5cccnc5)cc4)c23)[C@H](O)[C@@H](O)[C@@H]1O [Example 35, 2-[3-(4-Pyridin-3-yl-benzyl)-1H-indol-4-yloxy]-β-D-glucopyranoside] | 
6.93 |  | 5.95 | COc1ccc(Cc2c[nH]c3cccc(O[C@@H]4O[C@H](CO)[C@@H](O)[C@H](O)[C@H]4O)c23)cc1 [Example 22, 2-[3-(4-Methoxy-benzyl)-1H-indol-4-yloxy]-β-D-glucopyranoside] | 
7.00 | 49 |  | CCOc1ccc(Cc2c[nH]c3cccc(O[C@@H]4O[C@H](CO)[C@@H](O)[C@H](O)[C@H]4O)c23)cc1 [Example 25, 2-[3-(4-Ethoxy-benzyl)-1H-indol-4-yloxy]-β-D-glucopyranoside] | 
 | 46 |  | CCc1ccc(CCc2c[nH]c3cccc(O[C@@H]4O[C@H](CO)[C@@H](O)[C@H](O)[C@H]4O)c23)cc1 [Example 9, 2-{3-[2-(4-Ethyl-phenyl)-ethyl]-1H-indol-4-yloxy}-β-D-glucopyranoside] | inhibition at 1 µM (human SGLT2; 1 μM compound, read-out: CHOK-SGLT2 % Inh. @ 1 μM): 50%

— patent publication US7820630B2, “Substituted indole-O-glucosides” (Janssen Pharmaceutica NV, priority 2003, dated 2010)
